Structures are written as SMILES.

For orientation: IC50 means the concentration that gives 50% inhibition.

This experiment concerns the target T1, Protein-glutamine gamma-glutamyltransferase (Cavia porcellus, UniProt Q7M0F8).
T1 sequence (Q7M0F8 whole entry): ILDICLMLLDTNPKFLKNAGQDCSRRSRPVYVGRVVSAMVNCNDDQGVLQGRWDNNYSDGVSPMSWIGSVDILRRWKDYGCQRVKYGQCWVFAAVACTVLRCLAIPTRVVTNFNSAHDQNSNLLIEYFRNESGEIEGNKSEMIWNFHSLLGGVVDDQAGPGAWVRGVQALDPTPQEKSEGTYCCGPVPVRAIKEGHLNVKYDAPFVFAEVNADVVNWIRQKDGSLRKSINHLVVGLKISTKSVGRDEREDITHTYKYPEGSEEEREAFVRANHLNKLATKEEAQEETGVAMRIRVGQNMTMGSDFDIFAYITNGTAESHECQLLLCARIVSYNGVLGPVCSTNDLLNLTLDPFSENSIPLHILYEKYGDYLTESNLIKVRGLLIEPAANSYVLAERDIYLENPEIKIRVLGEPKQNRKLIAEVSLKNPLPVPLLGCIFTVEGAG
Briefly: Inhibition of guinea pig liver transglutaminase.
With `CC(C)N(CCO)CCC(=O)c1ccc(F)cc1`, the IC50 amounted to 10 µM. For the compound `CN(CCC(=O)c1ccc2ccccc2c1)Cc1ccccc1`, the IC50 stood at 21 µM. Consider `O=C(CCN(CCO)CCO)c1ccc2ccccc2c1`, for which the IC50 is 22 µM.

`CC(C)N(CCO)CCC(=O)c1ccc(C#N)cc1` gave an IC50 of 6.1 µM. In turn, `CC(C)(C)N(CCC(=O)c1ccc(F)cc1)Cc1ccccc1` returned an IC50 of 1.1 µM. The compound `CCN(CCC(=O)c1ccc(F)cc1)Cc1ccccc1` had an IC50 of 13 µM. Under `CC(C)N(CCC(=O)c1ccc2ccccc2c1)Cc1ccccc1` stands 4 µM. Regarding `CC(C)N(CCO)CCC(=O)c1ccc2ccccc2c1`, the IC50 worked out at 16 µM. Take `CC(C)N(CCC(=O)c1ccc(Cl)cc1)Cc1ccccc1`: the IC50 was determined as 1.4 µM.

Regarding `CC(C)N(CCO)CCC(=O)c1ccc(Cl)cc1`, the IC50 is 2.2 µM.

Regarding `O=C(CCN(CCO)Cc1ccccc1)c1ccc2c(Cl)cccc2c1`, the IC50 was 1.5 µM. In the case of `CCCCN(CCO)CCC(=O)c1ccc2c(Cl)cccc2c1`, inhibition was half-maximal at 1.9 µM (IC50). Under `CC(C)N(CCC(=O)c1ccc(Cc2ccccc2)cc1)Cc1ccccc1` stands 2.6 µM; under `CC(C)(C)N(CCC(=O)c1ccc(Cc2ccccc2)cc1)Cc1ccccc1`, 3.6 µM; under `CN(CCC(=O)c1ccc(Cc2ccccc2)cc1)Cc1ccccc1`, 26 µM.

The compound `CN(CCC(=O)c1ccc(Oc2ccccc2)cc1)Cc1ccccc1` yielded an IC50 of 18 µM. `CC(C)N(CCC(=O)c1ccc(F)cc1)Cc1ccccc1` returned an IC50 of 10 µM. In turn, `CC(C)N(CCC(=O)c1ccc2c(Cl)cccc2c1)Cc1ccccc1` returned an IC50 of 1.7 µM.

Turning to `CC(C)(C)N(CCC(=O)c1ccc(C#N)cc1)Cc1ccccc1`, half-maximal inhibition (IC50) was put at 1.7 µM. In the case of `CC(C)(C)N(CCO)CCC(=O)c1ccc(C#N)cc1`, it took 10 µM to reach half-maximal inhibition (IC50).

`CC(C)(C)N(CCC(=O)c1ccc(Cl)cc1)Cc1ccccc1`: the concentration for half-maximal inhibition (IC50) worked out at 0.7 µM.

In the case of `CC(C)N(CCC(=O)c1ccc(Oc2ccccc2)cc1)Cc1ccccc1`, the half-inhibitory concentration (IC50) was 12 µM.

Regarding `CCCCN(CCO)CCC(=O)c1ccc(Oc2ccccc2)cc1`, the midpoint of inhibition, the IC50, lay at 7.4 µM.
